Entries after “also recorded” stand apart in the source; their conditions may differ.
Legend:
ornithine decarboxylase = biological target: T1, ornithine decarboxylase (Homo sapiens, UniProt P11926); settings: cited from earlier work
T1 sequence (P11926 1-461): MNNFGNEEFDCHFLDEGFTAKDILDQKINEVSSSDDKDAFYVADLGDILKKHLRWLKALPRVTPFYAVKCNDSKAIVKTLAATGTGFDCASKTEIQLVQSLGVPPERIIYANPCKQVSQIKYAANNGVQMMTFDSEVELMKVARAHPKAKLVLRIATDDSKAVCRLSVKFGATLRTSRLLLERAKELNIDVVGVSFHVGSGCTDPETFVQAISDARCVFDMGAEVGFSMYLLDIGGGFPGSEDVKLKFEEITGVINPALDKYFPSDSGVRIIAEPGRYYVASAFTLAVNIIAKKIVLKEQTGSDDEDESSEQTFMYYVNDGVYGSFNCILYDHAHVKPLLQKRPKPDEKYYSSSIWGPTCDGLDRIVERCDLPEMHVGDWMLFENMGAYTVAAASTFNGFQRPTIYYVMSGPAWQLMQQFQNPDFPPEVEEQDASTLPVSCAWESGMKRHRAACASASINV

[1] = system: carcinogen-induced cancer development; settings: variety of rodent models; cited from earlier work
castrated C57BL/6 mice = experiment: Prostate and levator ani muscle weights in castrated mice treated with testosterone or testosterone plus DFMO (FIG. 9); type: in vivo
From the text: Shown is a histogram showing prostate weights and levator ani muscle weights in vehicle-treated intact C57BL/6 mice, and castrated mice treated with vehicle, testosterone, or testosterone plus an ODC inhibitor DFMO.

[2] = system: PCNA expression in the prostate epithelial cells; experiment: PCNA expression in prostate epithelial cells (FIG. 7C); type: cell-based; settings: follistatin 1 ng/ml and 5 ng/ml, DHT 10 nM
[3] = system: PSA expression in the prostate epithelial cells; experiment: PSA expression in prostate epithelial cells (FIG. 7B); type: cell-based; settings: follistatin 1 ng/ml and 5 ng/ml, R1881 1 nM
C3H 10T1/2 cells = settings: 100 nm testosterone, 0.5 μg/ml anti-Fst antibody, rFst 0.2 μg/ml; cited from earlier work
castrated (CX) mice = experiment: Histologic sections of the prostate in castrated mice (FIG. 7A); type: in vivo
[4] = system: ornithine decarboxylase (ODC) and polyamine pathway in the prostate; experiment: Microarrays of prostate RNA from castrated mice treated with follistatin or testosterone (FIG. 8); type: in vivo; settings: microarray
From the text: FIG. 8A is a schematic of microarray experiments to identify testosterone-selective signalling pathways in the prostate which are not activated by follistatin (Fst), and identify genes which are follistatin sensitive and those which are testosterone sensitive. Adult male mice were either sham-castrated or castrated under ketamine-xylazine anesthesia and treated with vehicle (sham), follistatin or testosterone. RNA was extracted from the prostate and levator ani muscle and subjected to microarrays. […] Shown in the box is the region of highly differentially expressed genes between the follistatin (Fst/CX) and testosterone (Tes/CX) treated mice.
Using microarrays, the inventors elucidated the signaling pathways that are differentially activated in the skeletal muscle and prostate by each of testosterone and follistatin, and assessed the pathways that are specifically activated in the prostate by testosterone, but were not follistatin (FIG. 8A-8B). The inventors determined that testosterone and follstatin both activate common signaling pathways that mediate their anabolic effects on the skeletal muscle, and specifically assessed if testosterone activates one or more unique signaling pathways in the prostate that are not activated by follistatin.

[5] = system: older men with low or low normal testosterone levels; settings: testosterone versus placebo; cited from earlier work
[6] = cited from earlier work
[7] = system: Wnt target genes in 3T3-L1 cells; settings: 3T3-L1 cells incubated with 100 nM testosterone; cited from earlier work
LNCaP cells = experiment: Proliferation of androgen-sensitive LNCaP cells in vitro; type: cell-based
C57BL/6 mice = experiment: Systemic follistatin treatment of mice: fat mass, lean mass, muscle and bone mass (FIG. 6); type: in vivo
[8] = mice in vivo, given with testosterone

## NCCCC(N)(C(=O)O)C(F)F (racemic) [DFMO, (RS)-2,5-diamino-2-(difluoromethyl)pentanoic acid]
Ornithine decarboxylase
  inhibition of ornithine decarboxylase: potent inhibitor of ornithine decarboxylase
[1]
  carcinogen-induced cancer development: inhibit carcinogen-induced cancer development
Castrated C57BL/6 mice; [8]
  effect of the ODC inhibitor on testosterone's anabolic effect on the muscle: did not block testosterone's effect on the muscle; also recorded: maintaining muscle anabolic effects of testosterone
  effect of the ODC inhibitor on testosterone-induced prostate growth: blocks testosterone's effects on the prostate; also recorded: suppresses testosterone-induced prostate growth in vivo

## C[C@]12CCC(=O)C[C@@H]1CC[C@@H]1[C@@H]2CC[C@]2(C)[C@@H](O)CC[C@@H]12 [DHT, Dihydrotestosterone]
[2]
  PCNA expression: upregulated PCNA expression

## C[C@]1(O)CC[C@H]2[C@@H]3CCC4=CC(=O)CCC4=C3C=C[C@@]21C [R1881]
[3]
  PSA expression: stimulates PSA expression

## C[C@]12CC[C@H]3[C@@H](CCC4=CC(=O)CC[C@@]43C)[C@@H]1CC[C@@H]2O [testosterone, 17-β-hydroxyandrost-4-en-3-one]
C3H 10T1/2 cells
  myogenic differentiation of mesenchymal multipotent cells: promotes myogenic differentiation; also recorded: stimulate myogenic differentiation
Castrated (CX) mice
  prostate growth and prostate glands: restored prostate mass and growth of prostate glands
[4]
  polyamine biosynthetic pathway / ODC gene expression in the prostate: activated by testosterone in the prostate
[4]; listed as Testosterone
  polyamine biosynthetic pathway / ODC gene expression in the prostate: upregulate several biosynthetic pathways including the polyamine biosynthetic pathway
[5]
  fat mass: reduces fat mass
  lean body mass, muscle strength and bone mineral density: improves lean body mass (LBM), a measure of muscle mass, muscle strength and bone mineral density (BMD)
[6]
  testosterone circulating unbound to plasma proteins: Less than 2.5%
[7]
  Fst, CD44 and Lef1 gene expression: upregulation of Fst (follastin) and CD44 and Lef1 gene expression
Castrated C57BL/6 mice; castrated C57BL/6 mice
  levator ani muscle mass (levator ani muscle weights): restored prostate as well as levator ani muscle mass
  prostate mass (prostate weights): restored prostate as well as levator ani muscle mass

B1: follistatin: an endogenous protein that increases muscle mass; recombinant Fst protein (protein, UniProt P19883 30-344, looked up)
Follistatin: GNCWLRQAKNGRCQVLYKTELSKEECCSTGRLSTSWTEEDVNDNTLFKWMIFNGGAPNCIPCKETCENVDCGPGKKCRMNKKNKPRCVCAPDCSNITWKGPVCGLDGKTYRNECALLKARCKEQPELEVQYQGRCKKTCRDVFCPGSSTCVVDQTNNAYCVTCNRICPEPASSEQYLCGNDGVTYSSACHLRKATCLLGRSIGLAYEGKCIKAKSCEDIQCTGGKKCLWDFKVGRGRCSLCDELCPDSKSDEPVCASDNATYASECAMKEAACSSGVLLEVKHSGSCNSISEDTEEEEEDEDQDYSFPISSILEW
LNCaP cells
  proliferation of androgen-sensitive LNCaP cells: does not up stimulate the proliferation
C3H 10T1/2 cells
  myogenic differentiation of mesenchymal multipotent cells: stimulate myogenic differentiation
Castrated (CX) mice
  prostate growth and prostate glands: does not stimulate prostate growth; also recorded: did not stimulate prostate growth or glands
[4]
  polyamine biosynthetic pathway / ODC gene expression in the prostate: not upregulated
C57BL/6 mice; castrated mice
  fat mass: reduces fat mass
  muscle and bone mass: increases muscle and bone mass
C57BL/6 mice; mice, 13 weeks systemic administration of 0, 10, 30 and 100 μg recombinant follistatin
  lean body mass, measured by NMR: increased dose-dependently
C57BL/6 mice; mice, 13 weeks systemic administration of 10, 30 and 100 μg follistatin
  fat mass, expressed as a percent of body weight: fat mass is decreased
[3]
  PSA expression: nor does it up regulate PSA expression; also recorded: does not stimulate PSA expression
